From paper PMC10620772, “Design, synthesis, and biological evaluation of new pyrimidine-5-carbonitrile derivatives as novel anti-cancer, dual EGFR^WT/COX-2 inhibitors with docking studies” (RSC Advances, 2023)

What was measured:
Type in all cases: cell-based, human
A498 = experiment: NCI60 antitumor screening; details: 10 μM one-dose
SN12C = experiment: NCI60 antitumor screening; details: 10 μM one-dose
DU-145 = experiment: NCI60 antitumor screening; details: 10 μM one-dose
SK-MEL-2 = experiment: NCI60 antitumor screening; details: 10 μM one-dose
A549/ATCC = experiment: NCI60 antitumor screening; details: 10 μM one-dose
MCF7 = experiment: NCI60 antitumor screening; details: 10 μM one-dose
M14 = experiment: NCI60 antitumor screening; details: 10 μM one-dose
TK-10 = experiment: NCI60 antitumor screening; details: 10 μM one-dose
OVCAR-3 = experiment: NCI60 antitumor screening; details: 10 μM one-dose
NCI-H322M = experiment: NCI60 antitumor screening; details: 10 μM one-dose
OVCAR-8 = experiment: NCI60 antitumor screening; details: 10 μM one-dose
COLO 205 = experiment: NCI60 antitumor screening; details: 10 μM one-dose
SK-MEL-28 = experiment: NCI60 antitumor screening; details: 10 μM one-dose
HCT-15 = experiment: NCI60 antitumor screening; details: 10 μM one-dose
IGROV1 = experiment: NCI60 antitumor screening; details: 10 μM one-dose
T-47D = experiment: NCI60 antitumor screening; details: 10 μM one-dose
KM12 = experiment: NCI60 antitumor screening; details: 10 μM one-dose
RPMI-8226 = experiment: NCI60 antitumor screening; details: 10 μM one-dose
EKVX = experiment: NCI60 antitumor screening; details: 10 μM one-dose
UO-31 = experiment: NCI60 antitumor screening; details: 10 μM one-dose
RXF 393 = experiment: NCI60 antitumor screening; details: 10 μM one-dose
HS 578T = experiment: NCI60 antitumor screening; details: 10 μM one-dose
NCI/ADR-RES = experiment: NCI60 antitumor screening; details: 10 μM one-dose
UACC-257 = experiment: NCI60 antitumor screening; details: 10 μM one-dose
SNB-75 = experiment: NCI60 antitumor screening; details: 10 μM one-dose
SK-OV-3 = experiment: NCI60 antitumor screening; details: 10 μM one-dose
SF-268 = experiment: NCI60 antitumor screening; details: 10 μM one-dose
HL-60(TB) = experiment: NCI60 antitumor screening; details: 10 μM one-dose
HT29 = experiment: NCI60 antitumor screening; details: 10 μM one-dose
OVCAR-5 = experiment: NCI60 antitumor screening; details: 10 μM one-dose
UACC-62 = experiment: NCI60 antitumor screening; details: 10 μM one-dose
ACHN = experiment: NCI60 antitumor screening; details: 10 μM one-dose
CCRF-CEM = experiment: NCI60 antitumor screening; details: 10 μM one-dose
SR = experiment: NCI60 antitumor screening; details: 10 μM one-dose
PC-3 = experiment: NCI60 antitumor screening; details: 10 μM one-dose
MOLT-4 = experiment: NCI60 antitumor screening; details: 10 μM one-dose
OVCAR-4 = experiment: NCI60 antitumor screening; details: 10 μM one-dose
786–0 = experiment: NCI60 antitumor screening; details: 10 μM one-dose
LOX IMVI = experiment: NCI60 antitumor screening; details: 10 μM one-dose
CAKI-1 = experiment: NCI60 antitumor screening; details: 10 μM one-dose
MDA-MB-435 = experiment: NCI60 antitumor screening; details: 10 μM one-dose
MALME-3M = experiment: NCI60 antitumor screening; details: 10 μM one-dose
SNB-19 = experiment: NCI60 antitumor screening; details: 10 μM one-dose
SF-539 = experiment: NCI60 antitumor screening; details: 10 μM one-dose
NCI-H522 = experiment: NCI60 antitumor screening; details: 10 μM one-dose
NCI-H226 = experiment: NCI60 antitumor screening; details: 10 μM one-dose
SF-295 = experiment: NCI60 antitumor screening; details: 10 μM one-dose
MDA-MB-468 = experiment: NCI60 antitumor screening; details: 10 μM one-dose
NCI-H460 = experiment: NCI60 antitumor screening; details: 10 μM one-dose
SW-620 = experiment: NCI60 antitumor screening; details: 10 μM one-dose
HCT-116 = experiment: NCI60 antitumor screening; details: 10 μM one-dose
MDA-MB-231/ATCC = experiment: NCI60 antitumor screening; details: 10 μM one-dose
BT-549 = experiment: NCI60 antitumor screening; details: 10 μM one-dose
HOP-62 = experiment: NCI60 antitumor screening; details: 10 μM one-dose
SK-MEL-5 = experiment: NCI60 antitumor screening; details: 10 μM one-dose
NCI60 cell lines panel = experiment: NCI60 antitumor screening, full panel; details: 10 μM one-dose, mean over NCI60
Description: The National Cancer Institute (NCI), Bethesda, Maryland, United States, selected all of the novel synthesized compounds (2b–d, 3a–d and 4a–p) for in vitro antitumor screening at a single concentration of 10 μM toward the NCI60 cell lines panel covering leukaemia, non-small cell lungs, colon, central nervous system (CNS), melanoma, ovarian, renal, prostate, and breast cancer cells.[32–35] The data were reported as a mean graph of the percent growth of the treated cell lines and expressed as percentage growth inhibition (GI%) in Table 1 and ESI 1.
(2) The molar concentration of the compound responsible for total growth inhibition, also known as total growth inhibition (TGI).
Regarding subpanel selectivity toward certain cancer type, the method of determining a compound's selectivity index is to divide the full panel MG-MID (μM) value by each single subpanel. Values above six indicate high selectivity against the subpanel; moderate selectivity is denoted by values between three and six. Conversely, compounds are termed nonselective if their selectivity is less than three.[30,37]

HCC-2998 = experiment: NCI60 antitumor screening; details: 10 μM one-dose
NCI-H23 = experiment: NCI60 antitumor screening; details: 10 μM one-dose
U251 = experiment: NCI60 antitumor screening; details: 10 μM one-dose
HOP-92 = experiment: NCI60 antitumor screening; details: 10 μM one-dose
K-562 = experiment: NCI60 antitumor screening; details: 10 μM one-dose

N#Cc1c(Cl)nc(SCc2ccc([N+](=O)[O-])cc2)nc1-c1ccc(F)cc1 [3c, 4-Chloro-6-(4-fluorophenyl)-2-((4-nitrobenzyl)thio) pyrimidine-5-carbonitrile]
GI% (A498): — (GI% < 10)
GI% (SN12C): 29.81%
GI% (DU-145): 24.93%
GI% (SK-MEL-2): — (GI% < 10)
GI% (A549/ATCC): 33.50%
GI% (MCF7): 27.06%
GI% (M14): 12.41%
GI% (TK-10): — (GI% < 10)
GI% (OVCAR-3): 13.71%
GI% (NCI-H322M): 13.28%
GI% (OVCAR-8): 16.16%
GI% (COLO 205): 22.66%
GI% (SK-MEL-28): — (GI% < 10)
GI% (HCT-15): 45.64%
GI% (IGROV1): — (GI% < 10)
GI% (T-47D): 68.67%
GI% (KM12): 27.77%
GI% (RPMI-8226): 41.51%
GI% (EKVX): 20.38%
GI% (UO-31): 32.10%
GI% (RXF 393): 29.76%
GI% (HS 578T): 13.31%
GI% (NCI/ADR-RES): 27.59%
GI% (UACC-257): 24.66%
GI% (SNB-75): — (GI% < 10)
GI% (SK-OV-3): 11.73%
GI% (SF-268): 18.20%
GI% (HL-60(TB)): 57.98%
GI% (HT29): 61.63%
GI% (OVCAR-5): — (GI% < 10)
GI% (UACC-62): 22.80%
GI% (ACHN): 14.60%
GI% (CCRF-CEM): 32.30%
GI% (SR): — (GI% < 10)
GI% (PC-3): 57.37%
GI% (MOLT-4): 38.07%
GI% (OVCAR-4): 18.42%
GI% (786–0): 21.29%
GI% (LOX IMVI): 14.22%
GI% (CAKI-1): 32.89%
GI% (MDA-MB-435): — (GI% < 10)
GI% (MALME-3M): — (GI% < 10)
GI% (SNB-19): 10.67%
GI% (SF-539): 28.21%
GI% (NCI-H522): 37.48%
GI% (NCI-H226): 46.54%
GI% (SF-295): 29.81%
GI% (MDA-MB-468): 19.68%
GI% (NCI-H460): 13.48%
GI% (SW-620): 37.21%
GI% (HCT-116): 40.70%
GI% (MDA-MB-231/ATCC): — (GI% < 10)
GI% (BT-549): 43.62%
GI% (HOP-62): — (GI% < 10)
GI% (SK-MEL-5): 22.36%
Mean GI% (NCI60 cell lines panel): 23.91%
GI% (HCC-2998): 12.17%
GI% (NCI-H23): 12.20%
GI% (U251): 31.17%
GI% (HOP-92): 45.40%
GI% (K-562): 44.30%

Cc1ccc(CSc2nc(-c3ccc(F)cc3)c(C#N)c(=O)[nH]2)cc1 [2d, 4-(4-Fluorophenyl)-2-((4-methylbenzyl)thio)-6-oxo-1,6-dihydropyrimidine-5-carbonitrile]
GI% (A498): — (GI% < 10)
GI% (SN12C): — (GI% < 10)
GI% (DU-145): — (GI% < 10)
GI% (SK-MEL-2): — (GI% < 10)
GI% (A549/ATCC): 10.16%
GI% (MCF7): 10.82%
GI% (M14): — (GI% < 10)
GI% (TK-10): — (GI% < 10)
GI% (OVCAR-3): — (GI% < 10)
GI% (NCI-H322M): — (GI% < 10)
GI% (OVCAR-8): — (GI% < 10)
GI% (COLO 205): — (GI% < 10)
GI% (SK-MEL-28): — (GI% < 10)
GI% (HCT-15): 15.77%
GI% (IGROV1): — (GI% < 10)
GI% (T-47D): 13.50%
GI% (KM12): — (GI% < 10)
GI% (RPMI-8226): — (GI% < 10)
GI% (EKVX): — (GI% < 10)
GI% (UO-31): — (GI% < 10)
GI% (RXF 393): — (GI% < 10)
GI% (HS 578T): — (GI% < 10)
GI% (NCI/ADR-RES): — (GI% < 10)
GI% (UACC-257): — (GI% < 10)
GI% (SNB-75): — (GI% < 10)
GI% (SK-OV-3): — (GI% < 10)
GI% (SF-268): — (GI% < 10)
GI% (HL-60(TB)): 43.38%
GI% (HT29): 10.72%
GI% (OVCAR-5): — (GI% < 10)
GI% (UACC-62): — (GI% < 10)
GI% (ACHN): — (GI% < 10)
GI% (CCRF-CEM): — (GI% < 10)
GI% (SR): — (GI% < 10)
GI% (PC-3): — (GI% < 10)
GI% (MOLT-4): 11.64%
GI% (OVCAR-4): — (GI% < 10)
GI% (786–0): — (GI% < 10)
GI% (LOX IMVI): — (GI% < 10)
GI% (CAKI-1): — (GI% < 10)
GI% (MDA-MB-435): — (GI% < 10)
GI% (MALME-3M): — (GI% < 10)
GI% (SNB-19): — (GI% < 10)
GI% (SF-539): — (GI% < 10)
GI% (NCI-H522): 12.91%
GI% (NCI-H226): — (GI% < 10)
GI% (SF-295): — (GI% < 10)
GI% (MDA-MB-468): — (GI% < 10)
GI% (NCI-H460): — (GI% < 10)
GI% (SW-620): — (GI% < 10)
GI% (HCT-116): — (GI% < 10)
GI% (MDA-MB-231/ATCC): — (GI% < 10)
GI% (BT-549): 15.75%
GI% (HOP-62): — (GI% < 10)
GI% (SK-MEL-5): — (GI% < 10)
Mean GI% (NCI60 cell lines panel): — (GI% < 10)
GI% (HCC-2998): — (GI% < 10)
GI% (NCI-H23): — (GI% < 10)
GI% (U251): — (GI% < 10)
GI% (HOP-92): — (GI% < 10)
GI% (K-562): — (GI% < 10)
